From the NIST ThermoML archive (doi:10.1016/j.jct.2004.12.002)
± gives the expanded uncertainty stated by the source.

Columns and labels:
[1] = 101 kPa, Liquid
[2] = xn = mol fraction of the nth substance listed; conditions: 101 kPa, Liquid

CCO [ethanol]
[1]
Conditions	mass density [kg/m3]
293.22 K	789.54 ± 0.47
298.16 K	785.46 ± 0.47
303.17 K	781.05 ± 0.48
308.17 K	776.75 ± 0.49
313.17 K	772.42 ± 0.49
318.18 K	768 ± 0.5

CCO [ethanol] + CCCCCCC
[2], x1 = 1
Conditions	mass density [kg/m3]
293.22 K	789.54 ± 0.47
298.16 K	785.46 ± 0.47
303.17 K	781.05 ± 0.48
308.17 K	776.75 ± 0.49
313.17 K	772.42 ± 0.49
318.18 K	768 ± 0.5

CCCCCCC [heptane]
[1]
Conditions	mass density [kg/m3]
293.22 K	683.82 ± 0.65
298.16 K	679.75 ± 0.65
303.17 K	675.51 ± 0.66
308.17 K	671.21 ± 0.67
313.17 K	666.97 ± 0.67
318.18 K	662.67 ± 0.68

CCCCCCC [heptane] + CCO
mass density [kg/m3], [2]
Conditions	293.21 K	293.22 K	298.16 K	298.17 K	303.17 K	308.17 K	313.17 K	318.17 K	318.18 K
x2 = 0	–	683.82 ± 0.65	679.75 ± 0.65	–	675.51 ± 0.66	671.21 ± 0.67	666.97 ± 0.67	–	662.67 ± 0.68
x2 = 0.0237	–	684.36 ± 0.65	–	680.19 ± 0.65	675.81 ± 0.66	671.53 ± 0.66	667.19 ± 0.67	663.59 ± 0.68	–
x2 = 0.0507	–	685.26 ± 0.64	–	681.04 ± 0.65	676.65 ± 0.66	672.35 ± 0.66	667.92 ± 0.67	–	662.82 ± 0.68
x2 = 0.1041	–	687.27 ± 0.64	–	683.06 ± 0.65	678.74 ± 0.65	674.32 ± 0.66	669.78 ± 0.67	665.46 ± 0.67	–
x2 = 0.2043	691.74 ± 0.63	–	–	687.5 ± 0.64	683.12 ± 0.64	678.62 ± 0.65	674.12 ± 0.66	669.66 ± 0.66	–
x2 = 0.3044	697.14 ± 0.62	–	–	692.93 ± 0.63	688.45 ± 0.63	683.9 ± 0.64	679.46 ± 0.65	674.88 ± 0.65	–
x2 = 0.3971	703.04 ± 0.61	–	–	698.76 ± 0.62	694.32 ± 0.62	689.82 ± 0.63	685.29 ± 0.64	680.74 ± 0.64	–
x2 = 0.4975	710.62 ± 0.6	–	–	706.35 ± 0.6	701.88 ± 0.61	697.41 ± 0.62	692.92 ± 0.62	688.34 ± 0.63	–
x2 = 0.6043	–	720.54 ± 0.58	–	716.27 ± 0.59	711.77 ± 0.59	707.35 ± 0.6	702.8 ± 0.61	698.25 ± 0.61	–
x2 = 0.6954	730.78 ± 0.57	–	–	726.58 ± 0.57	722.09 ± 0.58	717.65 ± 0.58	713.21 ± 0.59	708.71 ± 0.59	–
x2 = 0.8023	745.94 ± 0.54	–	–	741.81 ± 0.54	737.39 ± 0.55	733.18 ± 0.56	728.57 ± 0.57	724.14 ± 0.57	–
x2 = 0.9009	764.36 ± 0.51	–	–	760.18 ± 0.51	755.87 ± 0.52	751.57 ± 0.53	747.21 ± 0.53	742.91 ± 0.54	–
x2 = 0.9531	–	776.53 ± 0.49	–	772.37 ± 0.49	768.14 ± 0.5	763.83 ± 0.51	759.41 ± 0.51	–	754.95 ± 0.52
